Earlier results, collected in patent US10603401B2, “Dressing system” (Edixomed Limited, priority 2015, dated 2020).

Settings: healthy 70 kg-adult

COC(=O)[C@H]1[C@@H](OC(=O)c2ccccc2)C[C@@H]2CC[C@H]1N2C [cocaine]
Generally accepted safe dosage for topical anaesthesia: 200 mg

CCN(CC)CC(=O)Nc1c(C)cccc1C [lidocaine]
Generally accepted safe dosage for topical anaesthesia: 750 mg

CCCCNc1ccc(C(=O)OCCN(C)C)cc1 [tetracaine]
Generally accepted safe dosage for topical anaesthesia: 50 mg
